Test system: indigenous bacteria collected from the ultrasonic humidifier
Assay: Bactericidal evaluation (photocatalyst composition solutions, first example group)
Type: cell-based
Details: riboflavin sodium phosphate set to 10,000 ppm, no sacrificial agent
Description: The indigenous bacteria collected from the ultrasonic humidifier is adjusted to a predetermined concentration, then was added to an autoclave-sterilized normal bouillon medium (Eiken (register trade mark), manufactured by Eiken Chemical Co., Ltd.). Shaking culture for 24 hours was performed in a shaking incubator at 30° C. and 120 rpm. The solution when the number of bacteria reached about 1.5×10^9 CFU/ml was used as an inoculum solution.
Separately, the photocatalyst composition solutions obtained in the above Examples and Comparative Examples were also autoclave sterilized.
The inoculum solution was diluted with each of the photocatalyst composition solutions of the above Examples and Comparative Examples to prepare a solution having the number of bacteria of 1.5×10^7 CFU/ml, which was used as a test solution.
Two similar samples for each example and comparative example were prepared and stored under the following two conditions. The number of bacteria was measured using “Sani-Check BF” (manufactured by Biosan Laboratories, Inc.) and evaluation was performed according to the following evaluation criteria. […]

Compound: Cc1cc2nc3c(=O)[nH]c(=O)nc-3n(C[C@H](O)[C@H](O)[C@H](O)COP(=O)(O)O)c2cc1C [riboflavin sodium phosphate]
- bactericidal effect as worded in the text: a certain degree of bactericidal effect

From patent US20230415137A1, “PHOTOCATALYST COMPOSITION, PHOTOCATALYST COMPOSITION SOLUTION, PHOTOCATALYST MEMBER, METHOD FOR USING PHOTOCATALYST COMPOSITION, AND SPACE DISINFECTION METHOD” (priority 2020, published 2023)
